According to patent US10508104B2, “6-hydroxy-5-(phenyl/heteroarylsulfonyl)pyrimidin-4(1H)-one as APJ agonists” (Bristol-Myers Squibb Company, priority 2016, dated 2019):
pEC50: −log10 of the molar value.

Biological target: human APJ receptor (Homo sapiens (Human), UniProt P35414)
Assay: Intracellular cAMP accumulation assay (APJ hcAMP, HTRF)
Assay type: cell-based
Conditions: human APJ, intracellular cAMP accumulation; read-out: Human APJ cAMP EC50 Potency range
How it was run: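 HEK293 cells stably expressing human APJ, 5,000 per well, incubated 30 min at rt with compound, […] and 2 μM forskolin. cAMP measured by HTRF against a cAMP standard curve as inhibition of forskolin-driven production. EC50 from variable-slope sigmoidal fit.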

Chain of human APJ receptor (P35414 whole entry): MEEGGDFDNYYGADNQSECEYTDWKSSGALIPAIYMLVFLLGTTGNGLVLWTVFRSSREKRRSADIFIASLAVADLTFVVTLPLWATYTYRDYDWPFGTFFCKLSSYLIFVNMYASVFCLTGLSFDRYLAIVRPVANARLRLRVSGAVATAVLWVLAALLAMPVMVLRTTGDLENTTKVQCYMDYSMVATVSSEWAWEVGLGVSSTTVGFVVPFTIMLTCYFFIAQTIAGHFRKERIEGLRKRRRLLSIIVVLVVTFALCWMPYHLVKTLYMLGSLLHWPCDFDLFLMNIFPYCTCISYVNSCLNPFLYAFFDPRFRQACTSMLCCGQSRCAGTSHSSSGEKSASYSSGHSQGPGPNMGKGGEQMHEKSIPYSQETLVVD

SMILES | pEC50
CCCCc1nc(=O)c(S(=O)(=O)c2ccc(-c3cc(C)nc(C)c3)cc2)c(O)n1[C@@H](COC)c1ccccc1 [Example 154, 2-butyl-5-[4-(2,6-dimethylpyridin-4-yl)benzenesulfonyl]-6-hydroxy-1-[(1R)-2-methoxy-1-phenylethyl]-1,4-dihydropyrimidin-4-one] | 7.00 to 8.00
CCCCc1nc(=O)c(S(=O)(=O)c2ccc(-c3ccnc(C)c3)cc2)c(O)n1[C@H]1CCc2ccccc21 [Example 156, 2-butyl-1-[(1S)-2,3-dihydro-1H-inden-1-yl]-6-hydroxy-5-[4-(2-methylpyridin-4-yl)benzenesulfonyl]-1,4-dihydropyrimidin-4-one] | 6.52 to 7.00
CCCCc1nc(=O)c(S(=O)(=O)c2ccc(-c3cncc(C)c3)cc2)c(O)n1[C@H]1CCc2ccccc21 [Example 160, 2-butyl-1-[(1S)-2,3-dihydro-1H-inden-1-yl]-6-hydroxy-5-[4-(5-methylpyridin-3-yl)benzenesulfonyl]-1,4-dihydropyrimidin-4-one] | 6.52 to 7.00
CCCCc1nc(=O)c(S(=O)(=O)c2ccc(-c3cc(C)nc(C)c3)cc2)c(O)n1[C@H]1CCc2ccccc21 [Example 161, 2-butyl-1-[(1S)-2,3-dihydro-1H-inden-1-yl]-5-[4-(2,6-dimethylpyridin-4-yl)benzenesulfonyl]-6-hydroxy-1,4-dihydropyrimidin-4-one] | 6.52 to 7.00
CCCCc1nc(=O)c(S(=O)(=O)c2ccc(-c3cncc(F)c3)cc2)c(O)n1[C@H](C)c1cccc(C#N)c1 [Example 162, 3-[(1R)-1-{2-butyl-5-[4-(5-fluoropyridin-3-yl)benzenesulfonyl]-6-hydroxy-4-oxo-1,4-dihydropyrimidin-1-yl}ethyl]benzonitrile] | 7.00 to 8.00
CCCCc1nc(=O)c(S(=O)(=O)c2ccc(-c3ccc(F)nc3)cc2)c(O)n1[C@H]1CCc2ccccc21 [Example 163, 2-butyl-1-[(1S)-2,3-dihydro-1H-inden-1-yl]-5-[4-(6-fluoropyridin-3-yl)benzenesulfonyl]-6-hydroxy-1,4-dihydropyrimidin-4-one] | 8.00 to 11.00
CCCCc1nc(=O)c(S(=O)(=O)c2ccc(-c3ccnc(F)c3C)cc2)c(O)n1[C@H]1CCc2ccccc21 [Example 164, 2-butyl-1-[(1S)-2,3-dihydro-1H-inden-1-yl]-5-[4-(2-fluoro-3-methylpyridin-4-yl)benzenesulfonyl]-6-hydroxy-1,4-dihydropyrimidin-4-one] | 8.00 to 11.00
CCCCc1nc(=O)c(S(=O)(=O)c2ccc(-c3cccnc3C)cc2)c(O)n1[C@@H](CC)c1cccc(OC)c1 [Example 165, 2-butyl-6-hydroxy-1-[(1S)-1-(3-methoxyphenyl)propyl]-5-[4-(2-methylpyridin-3-yl)benzenesulfonyl]-1,4-dihydropyrimidin-4-one] | 8.00 to 11.00
CCCCc1nc(=O)c(S(=O)(=O)c2ccc(-c3ccc(F)nc3)cc2)c(O)n1[C@H](C)c1cccc(C#N)c1 [Example 166, 3-[(1R)-1-{2-butyl-5-[4-(6-fluoropyridin-3-yl)benzenesulfonyl]-6-hydroxy-4-oxo-1,4-dihydropyrimidin-1-yl}ethyl]benzonitrile] | 7.00 to 8.00
CCCCc1nc(=O)c(S(=O)(=O)c2ccc(-c3ccc(OC)nc3C)cc2)c(O)n1[C@H]1CCc2ccccc21 [Example 167, 2-butyl-1-[(1S)-2,3-dihydro-1H-inden-1-yl]-6-hydroxy-5-[4-(6-methoxy-2-methylpyridin-3-yl)benzenesulfonyl]-1,4-dihydropyrimidin-4-one] | 8.00 to 11.00
CCCCc1nc(=O)c(S(=O)(=O)c2ccc(-c3cncc(F)c3)cc2)c(O)n1[C@H]1CCc2ccccc21 [Example 168, 2-butyl-1-[(1S)-2,3-dihydro-1H-inden-1-yl]-5-[4-(5-fluoropyridin-3-yl)benzenesulfonyl]-6-hydroxy-1,4-dihydropyrimidin-4-one] | 8.00 to 11.00
CCCCc1nc(=O)c(S(=O)(=O)c2ccc(-c3ccnc(F)c3C)cc2)c(O)n1[C@@H](CC)c1cccc(OC)c1 [Example 169, 2-butyl-5-[4-(2-fluoro-3-methylpyridin-4-yl)benzenesulfonyl]-6-hydroxy-1-[(1S)-1-(3-methoxyphenyl)propyl]-1,4-dihydropyrimidin-4-one] | 8.00 to 11.00
CCCCc1nc(=O)c(S(=O)(=O)c2ccc(-c3cnc(F)cc3C)cc2)c(O)n1[C@H]1CCc2ccccc21 [Example 170, 2-butyl-1-[(1S)-2,3-dihydro-1H-inden-1-yl]-5-[4-(6-fluoro-4-methylpyridin-3-yl)benzenesulfonyl]-6-hydroxy-1,4-dihydropyrimidin-4-one] | 8.00 to 11.00
CCCCc1nc(=O)c(S(=O)(=O)c2ccc(-c3ccc(F)nc3C)cc2)c(O)n1[C@H]1CCc2ccccc21 [Example 171, 2-butyl-1-[(1S)-2,3-dihydro-1H-inden-1-yl]-5-[4-(6-fluoro-2-methylpyridin-3-yl)benzenesulfonyl]-6-hydroxy-1,4-dihydropyrimidin-4-one] | 8.00 to 11.00
CCCc1nc(=O)c(S(=O)(=O)c2ccc(-c3cncc(F)c3)cc2)c(O)n1[C@@H](COC)c1ccccc1 [Example 172, 5-[4-(5-fluoropyridin-3-yl)benzenesulfonyl]-6-hydroxy-1-[(1R)-2-methoxy-1-phenylethyl]-2-propyl-1,4-dihydropyrimidin-4-one] | 8.00 to 11.00
CCCc1nc(=O)c(S(=O)(=O)c2ccc(-c3cccnc3C)cc2)c(O)n1[C@@H](COC)c1ccccc1 [Example 173, 6-hydroxy-1-[(1R)-2-methoxy-1-phenylethyl]-5-[4-(2-methylpyridin-3-yl)benzenesulfonyl]-2-propyl-1,4-dihydropyrimidin-4-one] | 8.00 to 11.00
CCCc1nc(=O)c(S(=O)(=O)c2ccc(-c3ccc(F)nc3)cc2)c(O)n1[C@@H](COC)c1ccccc1 [Example 174, 5-[4-(6-fluoropyridin-3-yl)benzenesulfonyl]-6-hydroxy-1-[(1R)-2-methoxy-1-phenylethyl]-2-propyl-1,4-dihydropyrimidin-4-one] | 8.00 to 11.00
CCCc1nc(=O)c(S(=O)(=O)c2ccc(-c3ccncc3C)cc2)c(O)n1[C@@H](COC)c1ccccc1 [Example 175, 6-hydroxy-1-[(1R)-2-methoxy-1-phenylethyl]-5-[4-(3-methylpyridin-4-yl)benzenesulfonyl]-2-propyl-1,4-dihydropyrimidin-4-one] | 8.00 to 11.00
CCCc1nc(=O)c(S(=O)(=O)c2ccc(-c3ccnc(F)c3C)cc2)c(O)n1[C@@H](COC)c1ccccc1 [Example 176, 5-[4-(2-fluoro-3-methylpyridin-4-yl)benzenesulfonyl]-6-hydroxy-1-[(1R)-2-methoxy-1-phenylethyl]-2-propyl-1,4-dihydropyrimidin-4-one] | 8.00 to 11.00
CCCc1nc(=O)c(S(=O)(=O)c2ccc(-c3ccc(F)nc3C)cc2)c(O)n1[C@@H](COC)c1ccccc1 [Example 177, 5-[4-(6-fluoro-2-methylpyridin-3-yl)benzenesulfonyl]-6-hydroxy-1-[(1R)-2-methoxy-1-phenylethyl]-2-propyl-1,4-dihydropyrimidin-4-one] | 8.00 to 11.00

Continued, values first:

pEC50 | SMILES
8.00 to 11.00 | CCCCc1nc(=O)c(S(=O)(=O)c2ccc(-c3cccnc3C)cc2)c(O)n1[C@@H](COC)c1ccccc1 [Example 149, 2-butyl-6-hydroxy-1-[(1R)-2-methoxy-1-phenylethyl]-5-[4-(2-methylpyridin-3-yl)benzenesulfonyl]-1,4-dihydropyrimidin-4-one]
8.00 to 11.00 | CCCCc1nc(=O)c(S(=O)(=O)c2ccc(-c3ccc(F)nc3C)cc2)c(O)n1[C@@H](COC)c1ccccc1 [Example 150, 2-butyl-5-[4-(6-fluoro-2-methylpyridin-3-yl)benzenesulfonyl]-6-hydroxy-1-[(1R)-2-methoxy-1-phenylethyl]-1,4-dihydropyrimidin-4-one]
8.00 to 11.00 | CCCCc1nc(=O)c(S(=O)(=O)c2ccc(-c3cncc(C)c3)cc2)c(O)n1[C@@H](COC)c1ccccc1 [Example 151, 2-butyl-6-hydroxy-1-[(1R)-2-methoxy-1-phenylethyl]-5-[4-(5-methylpyridin-3-yl)benzenesulfonyl]-1,4-dihydropyrimidin-4-one]
8.00 to 11.00 | CCCCc1nc(=O)c(S(=O)(=O)c2ccc(-c3cnc(F)cc3C)cc2)c(O)n1[C@@H](COC)c1ccccc1 [Example 152, 2-butyl-5-[4-(6-fluoro-4-methylpyridin-3-yl)benzenesulfonyl]-6-hydroxy-1-[(1R)-2-methoxy-1-phenylethyl]-1,4-dihydropyrimidin-4-one]
8.00 to 11.00 | CCCCc1nc(=O)c(S(=O)(=O)c2ccc(-c3ccnc(C)c3)cc2)c(O)n1[C@@H](COC)c1ccccc1 [Example 153, 2-butyl-6-hydroxy-1-[(1R)-2-methoxy-1-phenylethyl]-5-[4-(2-methylpyridin-4-yl)benzenesulfonyl]-1,4-dihydropyrimidin-4-one]
8.00 to 11.00 | CCCCc1nc(=O)c(S(=O)(=O)c2ccc(-c3ccncc3C)cc2)c(O)n1[C@H]1CCc2ccccc21 [Example 155, 2-butyl-1-[(1S)-2,3-dihydro-1H-inden-1-yl]-6-hydroxy-5-[4-(3-methylpyridin-4-yl)benzenesulfonyl]-1,4-dihydropyrimidin-4-one]
8.00 to 11.00 | CCCCc1nc(=O)c(S(=O)(=O)c2ccc(-c3cccnc3C)cc2)c(O)n1[C@H]1CCc2ccccc21 [Example 157, 2-butyl-1-[(1S)-2,3-dihydro-1H-inden-1-yl]-6-hydroxy-5-[4-(2-methylpyridin-3-yl)benzenesulfonyl]-1,4-dihydropyrimidin-4-one]
8.00 to 11.00 | CCCCc1nc(=O)c(S(=O)(=O)c2ccc(-c3ccncc3C)cc2)c(O)n1[C@H](C)c1cccc(C#N)c1 [Example 158, 3-[(1R)-1-{2-butyl-6-hydroxy-5-[4-(3-methylpyridin-4-yl)benzenesulfonyl]-4-oxo-1,4-dihydropyrimidin-1-yl}ethyl]benzonitrile]
8.00 to 11.00 | CCCCc1nc(=O)c(S(=O)(=O)c2ccc(-c3ccnc(F)c3C)cc2)c(O)n1[C@H](C)c1cccc(C#N)c1 [Example 159, 3-[(1R)-1-{2-butyl-5-[4-(2-fluoro-3-methylpyridin-4-yl)benzenesulfonyl]-6-hydroxy-4-oxo-1,4-dihydropyrimidin-1-yl}ethyl]benzonitrile]
